Among the data in patent publication EP2269977B1, “Inhibitors of the 11-beta-hydroxysteroid dehydrogenase Type 1 enzyme” (AbbVie Inc., priority 2005, dated 2006) are metabolised values, retold here.

Series [1] can be described thus: Metabolic stability screen in mouse liver microsomes. The format is in vitro ADME. The following applies: substrate 10 µM, microsomal protein 0.1- 0.5 mg/ml, 1mM NADPH, pH 7.4, 37°C, 30 min incubation, LC/MS, read-out: Mouse Liver Microsomal Turnover. On the procedure:
(§1) Metabolic stability screen: each substrate (10 µM) was incubated with microsomal protein (0.1- 0.5 mg/ml) in 50mM potassium phosphate buffer (pH 7.4) in 48-Well plate. The enzyme reaction was initiated by the addition of 1mM NADPH, then incubated at 37°C in a Forma Scientific incubator (Marietta, OH, USA) with gentle shaking. The reactions were quenched by the addition of 800 µl of ACN/MeOH (1:1, v/v), containing 0.5 µM of internal standard (IS), after 30 min incubation. Samples were then filtered by using Captiva 96-Well Filtration (Varian, Lake Forest, CA, USA) and analyzed by LC/MS (mass spectrometry). Liver microsomal incubations were conducted in duplicate.
(§2) The parent remaining in the incubation mixture was determined by LC/MS. […] A Luna C8(2) (50 x 2.0 mm, particle size 3 µm, Phenomenex, Torrance, CA, USA) was used to quantify each compound at ambient temperature. […]
(§3) The peak area ratios (each substrate over IS) at each incubation time were expressed as the percentage of the ratios (each substrate over IS) of the control samples (0 min incubation). The parent remaining in the incubation mixture was expressed as the percentage of the values at 0 min incubation. The percentage turnover is calculated using the following equation (%turnover =[…] - %parent remaining) and is recorded as the percentage turnover in the Table 2. […]

Series [2] can be described thus: Metabolic stability screen in human liver microsomes. In kind it is in vitro ADME. The following applies: substrate 10 µM, microsomal protein 0.1- 0.5 mg/ml, 1mM NADPH, pH 7.4, 37°C, 30 min incubation, LC/MS, read-out: Human Liver Microsomal Turnover. On the procedure:
as §1, §2, §3

On to `CC(C)(Oc1ccc(Cl)cc1)C(=O)NC1C2CC3CC(C2)CC1C3` (centres unmarked) [EE, N-adamantan-2-yl-2-(4-chloro-phenoxy)-2-methyl-propionamide], for which the metabolised at 0.5 h, 10 µM in series [1] came out at 86%; in series [2], 88%.
